Drawing on patent US8853208B2, “Amino alcohol-substituted arylthienopyrimidinones, process for their preparation and their use as medicaments” (Sanofi, priority 2006, dated 2014), this text covers IC50 for 29 compounds.

T1 sequence (Q99705 whole entry): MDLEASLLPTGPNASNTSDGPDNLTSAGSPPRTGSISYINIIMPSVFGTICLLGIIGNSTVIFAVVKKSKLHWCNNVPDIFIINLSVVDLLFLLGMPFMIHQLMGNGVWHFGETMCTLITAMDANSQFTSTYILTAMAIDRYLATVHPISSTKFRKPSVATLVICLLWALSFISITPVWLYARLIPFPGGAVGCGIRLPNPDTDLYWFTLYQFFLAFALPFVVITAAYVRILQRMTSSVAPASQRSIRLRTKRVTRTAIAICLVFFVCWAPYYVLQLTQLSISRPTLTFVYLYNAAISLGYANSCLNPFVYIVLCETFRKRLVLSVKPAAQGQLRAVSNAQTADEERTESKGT

This experiment addresses T1, human MCH receptor (Homo sapiens, UniProt Q99705).
T1 construct: expressed in transfected cells
Nature of the experiment: Functional IC50 of MCH1R antagonists: cellular calcium flux (FLIPR) after MCH in recombinant HEK293 cells. It counts as cell-based. As to conditions: calcium flux after addition of agonist (MCH), recombinant HEK293 cell line expressing the human MCH receptor. The source says:
Influence on the MCH receptor in vitro; determination of functional IC50 values of MCH1R antagonists
Cloning of the cDNA for the human MCH receptor, preparation of a recombinant HEK293 cell line which expresses the human MCH receptor, and functional measurements with the recombinant cell line took place in analogy to the description by Audinot et al. (J. Biol. Chem. 276, 13554-13562, 2001). A difference from the reference was, however, the use of the plasmid pEAK8 from EDGE Biosystems (USA) for the construction of the expression vector. The host used for the transfection was a transformed HEK cell line named “PEAK Stable Cells” (likewise from EDGE Biosystems). Functional measurements of the cellular calcium flux after addition of agonist (MCH) in the presence of ligand of the invention took place with the aid of the FLIPR apparatus from Molecular Devices (USA), using protocols of the apparatus manufacturer. The compounds of the invention show a significant inhibition (>30%) of the signal induced by the agonist at a concentration of 100 μM, preferably at 10 μM, particularly preferably at 1 μM, very particularly preferably at 100 nM and even more particularly preferably at 10 nM. Besides the functional activity it is also possible to determine the affinity for the MCH1R according to Audinot et al. (Br. J. Pharmacol. 2001, 133, 371-378).
For orientation: Calcium assays in cells follow changes in intracellular calcium, usually with a dye or a luminescent sensor.
In general, IC50 refers to the concentration that inhibits the measured activity by half. With `CN1[C@@H]2CC[C@H]1C[C@@H](Oc1ccc(-n3cnc4cc(CCC5CC5)sc4c3=O)cc1)C2` [Example 7], the IC50 was 940 nM.

Take `CN1[C@@H]2CC[C@H]1C[C@@H](Oc1ccc(-n3cnc4cc(CCC5(O)CCCC5)sc4c3=O)cc1)C2` [Example 11, 6-[2-(1-Hydroxycyclopentyl)ethyl]-3-[4-((1R,3R,5S)-8-methyl-8-azabicyclo[3.2.1]oct-3-yloxy)phenyl]-3H-thieno[3,2-d]pyrimidin-4-one]: the IC50 stood at 1290 nM.

Consider `CCC(C)(O)CCc1cc2ncn(-c3ccc(O[C@H]4C[C@H]5CC[C@@H](C4)N5C)c(Cl)c3)c(=O)c2s1` (some centres unmarked) [Example 20], for which the IC50 came to 1030 nM.

As to `COCCCc1cc2ncn(-c3ccc(O[C@H]4C[C@H]5CC[C@@H](C4)N5C)c(C)c3)c(=O)c2s1` [Example 22], the IC50 was determined as 400 nM.

Consider `COCCCc1cc2ncn(-c3ccc(O[C@H]4C[C@H]5CC[C@@H](C4)N5C)c(Cl)c3)c(=O)c2s1` [Example 23], for which the IC50 came out at 530 nM.

Take `CCC(O)CCc1cc2ncn(-c3ccc(O[C@H]4C[C@H]5CC[C@@H](C4)N5C)c(C)c3)c(=O)c2s1` (some centres unmarked) [Example 27]: the IC50 was determined as 140 nM.

`COc1cc(-n2cnc3cc(C#CC4CC4)sc3c2=O)ccc1OCCN1CCCC1` [Example 42, 6-Cyclopropylethynyl-3-[3-methoxy-4-(2-pyrrolidin-1-ylethoxy)phenyl]-3H-thieno[3,2-d]-pyrimidin-4-one]: the 50% inhibitory concentration (IC50) was determined as 110 nM.

With `CC(O)C#Cc1cc2ncn(-c3ccc(O[C@H]4C[C@H]5CC[C@@H](C4)N5C)cc3)c(=O)c2s1` (some centres unmarked) [Example 50], the IC50 was determined as 240 nM.

With `COC(C)(C)C#Cc1cc2ncn(-c3ccc(O[C@H]4C[C@H]5CC[C@@H](C4)N5C)cc3)c(=O)c2s1` [Example 56], the IC50 was found to be 840 nM.

For the compound `Cc1cc(-n2cnc3cc(C#CC(C)O)sc3c2=O)ccc1O[C@H]1C[C@H]2CC[C@@H](C1)N2C` (some centres unmarked) [Example 57], the IC50 came out at 120 nM.

Take `COc1cc(-n2cnc3cc(C#CC(C)O)sc3c2=O)ccc1O[C@H]1C[C@H]2CC[C@@H](C1)N2C` (some centres unmarked) [Example 58]: the 50% inhibitory concentration (IC50) is 340 nM.

Take `CN1[C@@H]2CC[C@H]1C[C@@H](Oc1ccc(-n3cnc4cc(C#CC5CC5)sc4c3=O)cc1)C2` [Example 62]: the IC50 was 100 nM.

With `CS(=O)(=O)CCN1[C@@H]2CC[C@H]1C[C@@H](Oc1ccc(-n3cnc4cc(C#CC5CC5)sc4c3=O)cc1)C2` [Example 63], the IC50 turned out to be 560 nM.

For the compound `O=c1c2sc(C#CC3CC3)cc2ncn1-c1ccc(OCCN2CCCC2)c(F)c1` [Example 69], the IC50 was determined as 200 nM.

Consider `CN1[C@@H]2CC[C@H]1CC(Oc1ccc(-n3cnc4cc(N5C[C@H]6CCCN6C5=O)sc4c3=O)cc1)C2` (some centres unmarked) [Example 77], for which the IC50 is 9650 nM.

In the case of `CC(C)N(C)C(=O)c1cc2ncn(-c3ccc(O[C@H]4C[C@H]5CC[C@@H](C4)N5C)cc3)c(=O)c2s1` [Example 82], the IC50 was determined as 6880 nM.

As to `CN1[C@@H]2CC[C@H]1C[C@@H](Oc1ccc(-n3cnc4cc(C(=O)N5CCCCC5)sc4c3=O)cc1)C2` [Example 84], the IC50 amounted to 13000 nM.

With `CN(C)CCOc1ccc(-n2cnc3cc(COCC4CCC4)sc3c2=O)cc1` [Example 93, 6-Cyclobutylmethoxymethyl-3-[4 (2-dimethylaminoethoxy)phenyl]-3H-thieno[3,2-d]pyrimidin-4-one], the IC50 amounted to 930 nM.

Consider `CCCCC(=O)c1cc2ncn(-c3ccc(O[C@H]4C[C@H]5CC[C@@H](C4)N5C)cc3)c(=O)c2s1` [Example 114], for which the IC50 was 1860 nM.

Turning to `CN1[C@@H]2CC[C@H]1C[C@@H](Oc1ccc(-n3cnc4cc(C(O)C5CCCC5)sc4c3=O)cc1)C2` (stereo partly drawn) [Example 121, 6-(Cyclopentylhydroxymethyl)-3-[4-((1S,3R,5R)-8-methyl-8-azabicyclo[3.2.1]oct-3-yloxy)phenyl]-3H-thieno[3,2-d]pyrimidin-4-one], the IC50 was determined as 750 nM.

For `CCCCC(O)c1cc2ncn(-c3ccc(O[C@H]4C[C@H]5CC[C@@H](C4)N5C)cc3)c(=O)c2s1` (some centres unmarked) [Example 127], the IC50 turned out to be 1000 nM.

For `CN1[C@@H]2CC[C@H]1C[C@@H](Oc1ccc(-n3cnc4cc(C(O)CC(C)(C)C)sc4c3=O)cc1)C2` (some centres unmarked) [Example 135], the IC50 stood at 2250 nM.

Regarding `CN1[C@@H]2CC[C@H]1CC(Oc1ccc(-n3cnc4cc(C5=CCOCC5)sc4c3=O)cc1)C2` (some centres unmarked) [Example 142], the IC50 worked out at 2590 nM.

Turning to `CN1[C@@H]2CC[C@H]1C[C@@H](Oc1ccc(-n3cnc4cc(CC(O)C5CCC5)sc4c3=O)cc1)C2` (some centres unmarked) [Example 166], the IC50 is 1090 nM.

With `CN1[C@@H]2CC[C@H]1C[C@@H](Oc1ccc(-n3cnc4cc(CC(O)c5ccco5)sc4c3=O)cc1)C2` (some centres unmarked) [Example 169], the IC50 was 290 nM.

Take `CN1[C@@H]2CC[C@H]1C[C@@H](Oc1ccc(-n3cnc4cc(CCc5ccco5)sc4c3=O)cc1)C2` [Example 171, 6-(2-Furan-2-ylethyl)-3-[4-((1S,3R,5R)-8-methyl-8-azabicyclo[3.2.1]oct-3-yloxy)phenyl]-3H-thieno[3,2-d]pyrimidin-4-one]: the IC50 was 210 nM.

Turning to `CCC(O)C#Cc1cc2ncn(-c3ccc(OC4C[C@H]5CC[C@@H](C4)N5C)c(CCC(O)CC)c3)c(=O)c2s1` (some centres unmarked) [Example 178], the IC50 is 1270 nM.

For `CCc1cc(-n2cnc3cc(C#CC(O)CC)sc3c2=O)ccc1O[C@H]1C[C@H]2CC[C@@H](C1)N2C` (some centres unmarked) [Example 181], the 50% inhibitory concentration (IC50) is 210 nM.

Take `CCC(O)CCc1cc2ncn(-c3ccc(OC4C[C@H]5CC[C@@H](C4)N5C)c(CCCO)c3)c(=O)c2s1` (some centres unmarked) [Example 190]: the IC50 was 1350 nM.
